# “And” between values parts separate entries of the source, which are not always exact repeats. Equal values may be shown once.
# How the values were obtained:
# [1] = test system: cells expressing pluripotency markers derived from human embryonic stem cells; test: MTS viability (toxicity) assay of cells expressing pluripotency markers; type: cell-based; parameters: Raw data (duplicate), first replicate / Average: unit not given here; details: for viability at 10 µM: Homo sapiens, Embryonic stem cell; for viability at 10 µM / % Control: viability of cells expressing pluripotency markers, relative to control; for Raw data (duplicate), first replicate / Raw data (duplicate), second replicate: MTS viability assay raw reading; for Raw data (duplicate), first replicate: replicate 1; for Raw data (duplicate), second replicate: replicate 2; for Average: average of duplicate MTS raw readings
# Procedure: Derivation and maintenance of cells expressing pluripotency makers was conducted as has been described in Example 2. Cells were grown in DMEM:F12 supplemented with 2% FCS (Invitrogen), 100 ng/ml Activin A, 20 ng/ml Wnt-3a, and 50 ng/ml IGF (R&D Biosystems). Cells were seeded at a density of 10,000 cells/cm^2 on Falcon polystyrene flasks and grown in monolayer culture at 37° C., 5% CO2, low oxygen. After reaching 60-70% confluence, cells were passed by washing the monolayer with PBS and incubating with TrypLE (Invitrogen) for 3-5 minutes to allow detachment and single cell dispersal.
# Screening was conducted using test compounds from a proprietary library of small molecules selected for their ability to inhibit GSK-3B enzyme activity. Compounds from this library were made available as 1 mM stocks, in a 96-well plate format in 50 mM HEPES, 30% DMSO. For assay, cells expressing pluripotency markers were washed, counted, and plated in normal culture medium at a seeding density of 20,000 cells per well in 96-well clear-bottom, dark-well plates (Costar). This seeding density was previously determined to yield optimal monolayer formation in overnight culture. On the following day, culture medium was removed, cell monolayers were rinsed three times with PBS, and test compounds were added to the wells in 80 μl aliquots, each diluted into assay medium at a final assay concentration of 10 μM. On day 2 of the assay, medium was removed from each well and replaced with a fresh aliquot of test compounds diluted into assay medium. Assay medium on days 1 and 2 of culture consisted of DMEM:F12 supplemented with 0.5% FCS and 100 ng/ml Activin A. On days 3 and 4 of culture, medium was removed from each well and replaced with DMEM:F12 supplemented with 2% FCS and 100 ng/ml Activin A (no test compound). On day 4 of assay, 15 μl of MTS (Promega) was added to each well and plates were incubated at 37° C. for 1.5 to 4 hours prior to reading optical density at 490 nm on a SpectraMax (Molecular Devices) instrument. Statistical measures consisting of mean, standard deviation, and coefficient of variation were calculated for each duplicate set. Toxicity was calculated for each test well relative to a positive control (wells treated with Activin A and Wnt3a on days 1 and 2 of culture).
# A larger proportion of the compounds have minimal or no measurable toxicity in this cell-based assay.
# A small panel of select compounds was repeat tested over a narrow dose titration range, again using cells expressing pluripotency markers in a similar assay as described above.
# [2] = test system: human embryonic stem cells (H9 or H1 lines); test: Plate reader (MTS) proliferation assay; type: cell-based; details: for Average: average of replicate raw data; for activity at 10 µM: Homo sapiens, Embryonic stem cell, 96 h; for activity at 10 µM / % Control Value (proliferation): 10 μM test compound with 100 ng/ml activin A on days 1-2, MTS OD490 on day 4, vs Activin A/Wnt3a positive control, strong and moderate hits; for Raw Data: replicate wells, plate reader proliferation screen of GSK-3B inhibitors
# Procedure: Maintenance of human embryonic stem cells (H9 or H1 lines) was conducted as described in Example 1. Colonies of cells were maintained in an undifferentiated, pluripotent state with passage on average every four days. Passage was performed by exposing cell cultures to a solution of collagenase (1 mg/ml; Sigma-Aldrich) for 10 to 30 minutes at 37° C. followed by gentle scraping with a pipette tip to recover cell clusters. Clusters were allowed to sediment and washed to remove residual collagenase. Cell clusters were split at a ratio of 1:3 monolayer area for routine culture or a 1:1 ratio for immediate assay. The human embryonis stem cell lines used for these examples were maintained at passage numbers less than 50 and routinely evaluated for normal karyotypic phenotype as well as absence of mycoplasm contamination.
# Cell clusters used in assay were evenly resuspended in normal culture medium and plated into MATRIGEL-coated 96-well Packard VIEWPLATES (PerkinElmer) in volumes of 100 μl/well. MEF conditioned medium supplemented with 8 ng/ml bFGF) was used for initial plating and recovery. Daily feeding was conducted by aspirating spent culture medium from each well and replacing with an equal volume of fresh medium. Plates were maintained at 37° C. in a humidified box, 5% CO2 throughout the duration of assay.
# Primary screening assays were initiated by aspirating culture medium from each well followed by three washes in PBS to remove residual growth factors and serum. Test volumes of 80-100 μl per well were added back containing DMEM:F12 base medium (Invitrogen) supplemented with 0.5% FCS (HyClone) and 100 ng/ml activin A (R&D Biosystems) and 10 μM test compound. Positive control wells contained the same medium substituting 10-20 ng/ml Wnt3a (R&D Biosystems). Negative control wells contained base medium with 0.5% FCS without activin A or Wnt3a. Screening compounds were tested in triplicate. Wells were aspirated and fed again with identical solutions on day 2 of the assay. On days 3 and 4, all assay wells were aspirated and converted to DMEM:F 12 supplemented with 2% FCS and 100 ng/ml activin A with the exception of negative control wells which were maintained in DMEM:F12 base medium with 2% FCS.
# On day 4 of assay, 15-20 μl of MTS (Promega) was added to each well and plates were incubated at 37° C. for 1.5 to 4 hours. Densitometric readings at OD490 were determined using a Molecular Devices spectrophotometer plate reader. Average readings for replicate sets were calculated along with standard deviation and coefficient of variation. Experimental wells were compared to the Activin A/Wnt3a positive control to calculate a percent control value as a measure of proliferation.
# Strong hits are defined as greater than or equal to 120% of control values; moderate hits are defined as falling within the interval of 60-120% of control values. A significant number of compounds induce a proliferative response in this assay.
SMILES,viability at 10 µM [1] [%],"Raw data (duplicate), first replicate [1]","Raw data (duplicate), second replicate [1]",Average [1],Average [2],activity at 10 µM [2] [%],% Control [1],% Control Value (proliferation) [2],Raw Data [2]
"O=C1NC(=O)C(c2cccc3c2oc2ccccc23)=C1c1cn(CCCO)c2ncccc12 [Compound 33, 3-Dibenzo[b,d]furan-4-yl-4-[1-(3-hydroxypropyl)-1H-pyrrolo[2,3-b]pyridin-3-yl]-1H-pyrrole-2,5-dione]",45.2,0.315,0.542,0.428,0.1889,–,–,–,–
"O=C1NC(=O)C(c2cccc3c2sc2ccccc23)=C1c1cn(CCCO)c2ncccc12 [Compound 34, 3-Dibenzo[b,d]thien-4-yl-4-[1-(3-hydroxypropyl)-1H-pyrrolo[2,3-b]pyridin-3-yl]-1H-pyrrole-2,5-dione]",83.5,0.750,0.624,0.687,0.1420,–,–,–,–
"COc1ncc(C2=C(c3cn(CCCO)c4ncccc34)C(=O)NC2=O)c(OC)n1 [Compound 48, 3-[2,4-Bis(methyloxy)pyrimidin-5-yl]-4-[1-(3-hydroxypropyl)-1H-pyrrolo[2,3-b]pyridin-3-yl]-1H-pyrrole-2,5-dione]",–,–,–,–,–,148,–,–,–
"COCCCn1cc(C2=C(c3ccccc3OC)C(=O)NC2=O)c2cnccc21 [Compound 55, 3-[2-(Methyloxy)phenyl]-4-{1-[3-(methyloxy)propyl]-1H-pyrrolo[3,2-c]pyridin-3-yl}-1H-pyrrole-2,5-dione]",115,0.952,0.919,0.935,1.1695,152,–,–,–
"COc1ncc(C2=C(c3cn(CCCC#N)c4ncccc34)C(=O)NC2=O)c(OC)n1 [Compound 74, 4-(3-{4-[2,4-Bis(methyloxy)pyrimidin-5-yl]-2,5-dioxo-2,5-dihydro-1H-pyrrol-3-yl}-1H-pyrrolo[2,3-b]pyridin-1-yl)butanenitrile]",78.8,–,–,–,–,130,–,–,–
"O=C1NC(=O)C(c2nn(CCCO)c3ccccc23)=C1c1cn(C2CCOCC2)c2ccccc12 [Compound 78, 3-[1-(3-Hydroxypropyl)-1H-indazol-3-yl]-4-[1-(tetrahydro-2H-pyran-4-yl)-1H-indol-3-yl]-1H-pyrrole-2,5-dione]",22,0.300,0.223,0.261,1.0282,154,–,–,–
"Cn1cc(C2=C(c3nn(CC(=O)NCCO)c4ccccc34)C(=O)NC2=O)c2cc(Cl)ccc21 [Compound 82, 2-{3-[4-(5-Chloro-1-methyl-1H-indol-3-yl)-2,5-dioxo-2,5-dihydro-1H-pyrrol-3-yl]-1H-indazol-1-yl}-N-(2-hydroxyethyl)acetamide]",95,0.684,0.809,0.746,0.8929,131,–,–,–
"Cn1ccc(C2=C(c3cn(CCCC#N)c4ncccc34)C(=O)NC2=O)n1 [Compound 94, 4-{3-[4-(1-Methyl-1H-pyrazol-3-yl)-2,5-dioxo-2,5-dihydro-1H-pyrrol-3-yl]-1H-pyrrolo[2,3-b]pyridin-1-yl}butanenitrile]",95,0.810,0.683,0.746,0.9819,146,–,–,–
"COc1ncc(C2=C(c3cn(CCc4ccccc4)c4ncccc34)C(=O)NC2=O)c(OC)n1 [Compound 98, 3-[2,4-Bis(methyloxy)pyrimidin-5-yl]-4-[1-(2-phenylethyl)-1H-pyrrolo[2,3-b]pyridin-3-yl]-1H-pyrrole-2,5-dione]",88.1,0.758,0.575,0.667,0.6374,88,–,–,–
"O=C1NC(=O)C2=C1c1cn(c3ccccc13)CCOCCOCCN(Cc1ccccc1)CCn1cc2c2ccccc21 [Compound 105, 14-(Phenylmethyl)-6,7,9,10,13,14,15,16-octahydro-12H,23H-5,26:17,22-di(metheno)dibenzo[k,q]pyrrolo[3,4-n][1,4,7,10,19]dioxatriacyclohenicosine-23,25(24H)-dione]",–,0.916,0.859,0.887,1.2038,–,124.0%,183.8%,1.0968 and 1.3108
"O=C1NC(=O)C2=C1c1cn(c3ccccc13)CCOCCOCCN(Cc1ccco1)CCn1cc2c2ccccc21 [Compound 127, 14-(Furan-2-ylmethyl)-6,7,9,10,13,14,15,16-octahydro-12H,23H-5,26:17,22-di(metheno)dibenzo[k,q]pyrrolo[3,4-n][1,4,7,10,19]dioxatriazacyclohenicosine-23,25(24H)-dione]",–,0.745 and 0.744,0.685 and 0.737,0.715 and 0.741,0.9229 and 1.0032,–,90.2% and 94.1%,136.8% and 124.4%,0.9589 and 0.8868 and 1.0442 and 0.9622
"O=C1NC(=O)C2=C1c1cn(c3ccccc13)CCOCCOCCN(Cc1ccncc1)CCn1cc2c2ccccc21 [Compound 139, 14-(Pyridin-4-ylmethyl)-6,7,9,10,13,14,15,16-octahydro-12H,23H-5,26:17,22-di(metheno)dibenzo[k,q]pyrrolo[3,4-n][1,4,7,10,19]dioxatriazacyclohenicosine-23,25(24H)-dione]",–,0.532,0.682,0.607,0.8650,–,78.3%,115.5%,0.9184 and 0.8116
"O=C1NC(=O)C(c2cn(CCCO)c3ncccc23)=C1c1cc2ccccc2o1 [Compound 241, 3-(1-Benzofuran-2-yl)-4-[1-(3-hydroxypropyl)-1H-pyrrolo[2,3-b]pyridin-3-yl]-1H-pyrrole-2,5-dione]",85.3,–,–,–,–,–,–,–,–
